Test results published in patent US12187706B2, “NLRP3 modulators” (INNATE TUMOR IMMUNITY, INC., priority 2019, dated 2025).

Key:
human TLR7 = target: T1, human TLR7 (Homo sapiens, UniProt Q9NYK1); experiment: In vitro human TLR7 reporter assay (HEK-Blue, NF-kB/AP1-inducible SEAP); type: cell-based; conditions: at 50 μM
T1 construct: host or cells: human HEK-Blue cells with NF-kB/AP1-inducible SEAP reporter
T1 sequence (Q9NYK1 27-1049): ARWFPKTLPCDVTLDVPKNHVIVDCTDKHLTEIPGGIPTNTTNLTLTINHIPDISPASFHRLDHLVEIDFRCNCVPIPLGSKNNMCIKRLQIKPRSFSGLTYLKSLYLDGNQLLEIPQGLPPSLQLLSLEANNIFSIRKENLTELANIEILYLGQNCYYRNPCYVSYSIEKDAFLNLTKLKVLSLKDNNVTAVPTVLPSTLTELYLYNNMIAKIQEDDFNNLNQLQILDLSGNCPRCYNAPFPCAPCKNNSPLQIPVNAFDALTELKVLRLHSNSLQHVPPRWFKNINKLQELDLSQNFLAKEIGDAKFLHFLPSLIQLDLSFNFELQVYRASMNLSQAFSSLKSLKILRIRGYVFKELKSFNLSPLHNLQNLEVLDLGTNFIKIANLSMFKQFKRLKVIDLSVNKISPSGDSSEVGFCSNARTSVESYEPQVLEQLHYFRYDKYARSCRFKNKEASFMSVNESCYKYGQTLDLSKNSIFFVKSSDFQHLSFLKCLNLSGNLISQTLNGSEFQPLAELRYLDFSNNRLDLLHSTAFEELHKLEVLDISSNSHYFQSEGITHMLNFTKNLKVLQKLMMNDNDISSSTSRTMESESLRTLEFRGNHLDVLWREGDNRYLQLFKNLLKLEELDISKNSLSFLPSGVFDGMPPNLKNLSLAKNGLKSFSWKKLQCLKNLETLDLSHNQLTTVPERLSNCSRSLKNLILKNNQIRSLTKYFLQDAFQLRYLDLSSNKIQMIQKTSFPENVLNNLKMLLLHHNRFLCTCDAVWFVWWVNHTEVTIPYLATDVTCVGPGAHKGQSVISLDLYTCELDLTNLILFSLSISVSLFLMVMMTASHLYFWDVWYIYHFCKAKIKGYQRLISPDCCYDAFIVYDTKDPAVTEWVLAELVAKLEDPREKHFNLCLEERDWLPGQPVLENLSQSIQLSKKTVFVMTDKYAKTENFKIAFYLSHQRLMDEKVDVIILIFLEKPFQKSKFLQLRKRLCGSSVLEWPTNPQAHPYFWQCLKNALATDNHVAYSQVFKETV
Method: (§1) In Vitro Human TLR7 and TLR8 Binding Reporter Assays Logarithmically-growing human HEK-Blue cells co-expressing a TLR7 or TLR8 gene and a NF-kB/AP1-inducible SEAP (secreted embryonic alkaline phosphatase; […] Cellular SEAP production is measured using an Envision plate reader instrument thirty minutes after adding freshly-made Quanti-Blue reagent (prepared by following manufacturer instructions; Invivogen, San Diego, CA) to the HEK-Blue TLR Nf-kB-SEAP cell reactions. All EC50 values (half-maximal effective concentration) are determined using proprietary data analysis software.

human TLR8 = target: T2, human TLR8 (Homo sapiens, UniProt Q9NR97); experiment: In vitro human TLR8 reporter assay (HEK-Blue, NF-kB/AP1-inducible SEAP); type: cell-based; conditions: at 50 μM
T2 construct: host or cells: human HEK-Blue cells with NF-kB/AP1-inducible SEAP reporter
T2 sequence (Q9NR97 27-1041): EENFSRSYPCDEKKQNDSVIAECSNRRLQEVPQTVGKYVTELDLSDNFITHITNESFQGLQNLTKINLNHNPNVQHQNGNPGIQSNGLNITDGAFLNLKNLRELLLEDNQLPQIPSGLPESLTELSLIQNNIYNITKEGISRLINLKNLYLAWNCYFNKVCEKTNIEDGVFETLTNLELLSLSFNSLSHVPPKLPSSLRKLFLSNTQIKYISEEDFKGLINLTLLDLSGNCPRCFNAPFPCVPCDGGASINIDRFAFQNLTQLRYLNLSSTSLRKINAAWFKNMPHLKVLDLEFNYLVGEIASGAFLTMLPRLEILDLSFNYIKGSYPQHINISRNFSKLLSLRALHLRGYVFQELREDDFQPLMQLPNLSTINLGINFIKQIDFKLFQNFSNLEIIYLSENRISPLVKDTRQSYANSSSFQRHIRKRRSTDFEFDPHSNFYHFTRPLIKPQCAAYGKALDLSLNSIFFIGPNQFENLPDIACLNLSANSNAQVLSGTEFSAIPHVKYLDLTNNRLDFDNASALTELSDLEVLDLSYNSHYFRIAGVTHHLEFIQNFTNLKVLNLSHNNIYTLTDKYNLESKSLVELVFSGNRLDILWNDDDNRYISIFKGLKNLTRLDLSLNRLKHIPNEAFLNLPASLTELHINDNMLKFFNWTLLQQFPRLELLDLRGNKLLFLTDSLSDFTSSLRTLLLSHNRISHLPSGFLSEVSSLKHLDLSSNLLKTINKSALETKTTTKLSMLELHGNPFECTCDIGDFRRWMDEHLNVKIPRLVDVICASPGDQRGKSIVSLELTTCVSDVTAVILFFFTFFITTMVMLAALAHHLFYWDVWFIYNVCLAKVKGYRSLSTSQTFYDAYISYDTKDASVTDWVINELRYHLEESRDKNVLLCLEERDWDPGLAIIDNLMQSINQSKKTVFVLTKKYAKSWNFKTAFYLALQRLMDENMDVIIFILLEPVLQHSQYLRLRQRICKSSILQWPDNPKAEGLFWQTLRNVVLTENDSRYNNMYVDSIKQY
Method: as §1

Structure (SMILES): Nc1nc(OCCO)c2ccc(-c3ccn[nH]3)cc2n1 [Example 4, 2-((2-amino-7-(1H-pyrazol-3-yl)quinazolin-4-yl)oxy)ethan-1-ol]
- TLR7 agonist activity (human TLR7): < 50%
- TLR8 agonist activity (human TLR8): < 50%
